Experimental data taken from patent US20220177510A1, “DERIVATIVES OF GYLCERO-MANNO-HEPTOSE ADP FOR USE IN MODULATING IMMUNE RESPONSE” (priority 2019, published 2022).
“Also recorded” adds a separate entry of the source.

Assays:
[1] = target: T1, ALPK1 (Homo sapiens, UniProt Q96QP1); test: IL-8 secretion by HEK293 cells (IL-8 ELISA) as indication of ALPK1 activation; type: cell-based; details: HEK293 cells treated 4 hours, FIG. 6, Table 2A
T1 construct: endogenous in cells; host or cells: HEK293 (A1); HEK293 stably expressing an NF-kB-alkaline phosphatase reporter (A2)
T1 sequence (Q96QP1 whole entry): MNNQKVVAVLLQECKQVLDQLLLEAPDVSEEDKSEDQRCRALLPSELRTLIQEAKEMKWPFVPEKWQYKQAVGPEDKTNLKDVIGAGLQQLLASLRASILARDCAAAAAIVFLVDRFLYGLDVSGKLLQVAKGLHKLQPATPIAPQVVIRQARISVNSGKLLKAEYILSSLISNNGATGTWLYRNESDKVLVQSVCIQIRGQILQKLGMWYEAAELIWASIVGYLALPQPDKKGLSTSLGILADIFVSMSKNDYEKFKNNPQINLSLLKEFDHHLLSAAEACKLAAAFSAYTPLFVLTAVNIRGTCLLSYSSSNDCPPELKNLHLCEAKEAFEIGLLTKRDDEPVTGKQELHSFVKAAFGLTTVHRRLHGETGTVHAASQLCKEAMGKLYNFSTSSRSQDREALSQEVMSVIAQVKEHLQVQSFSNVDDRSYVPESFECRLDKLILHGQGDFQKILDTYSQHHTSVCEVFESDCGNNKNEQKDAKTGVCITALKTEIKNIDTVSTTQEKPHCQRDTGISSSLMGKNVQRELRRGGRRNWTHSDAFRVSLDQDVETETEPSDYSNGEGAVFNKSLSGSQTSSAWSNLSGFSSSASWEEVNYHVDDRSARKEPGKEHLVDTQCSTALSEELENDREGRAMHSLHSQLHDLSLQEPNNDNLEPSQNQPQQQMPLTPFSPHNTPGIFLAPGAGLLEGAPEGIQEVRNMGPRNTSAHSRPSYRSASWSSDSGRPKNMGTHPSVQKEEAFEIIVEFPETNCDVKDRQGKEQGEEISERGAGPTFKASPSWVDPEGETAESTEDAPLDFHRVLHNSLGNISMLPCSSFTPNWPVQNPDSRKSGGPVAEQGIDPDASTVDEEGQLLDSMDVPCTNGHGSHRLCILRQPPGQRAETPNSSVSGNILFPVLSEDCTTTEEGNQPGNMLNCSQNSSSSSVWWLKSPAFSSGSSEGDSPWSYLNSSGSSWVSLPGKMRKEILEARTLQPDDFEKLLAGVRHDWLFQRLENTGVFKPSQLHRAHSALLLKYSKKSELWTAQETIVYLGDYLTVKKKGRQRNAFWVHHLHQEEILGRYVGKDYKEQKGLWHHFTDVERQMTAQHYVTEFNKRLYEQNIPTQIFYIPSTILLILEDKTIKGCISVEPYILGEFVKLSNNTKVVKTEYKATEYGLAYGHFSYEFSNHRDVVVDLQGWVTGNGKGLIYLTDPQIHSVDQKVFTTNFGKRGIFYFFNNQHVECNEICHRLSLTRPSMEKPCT
Experimental: HEK293 cells were treated with H1b-ADP derivatives (A1, A2, A3, and A4) or with Compound 28 for 4 hours followed by analysis of IL-8 secretion using an IL-8 enzyme linked immunoassay (ELISA). IL-8 secretion is an indication of ALPK1 activation. The EC50 of each compound was determined using GraphPad Prism.

[2] = system: eosinophils, dendritic cells, neutrophils; test: Porcine pancreas elastase (PPE) induced immune cells in bronchoalveolar lavage, flow cytometry; type: in vivo, mouse; details: 30 μg/dose PPE, BAL day 2
Experimental: Eight-week-old male C57BL/6 mice were grouped (N=8/group) and were intraperitoneally (I.P.) injected with compound 28 at 0, 4, or 20 nmol/dose on days −1, 0, and 1. In addition, mice were intratracheally (I.Tr.) administrated with 0 or 30 μg/dose of porcine pancreas elastase (PPE) dissolved in 50 μL saline on day 0. Mice were sacrificed on day 2 and the immune cells were collected by bronchoalveolar lavage (BAL). Cells were then subjected to fluorophore-conjugated antibody staining and analyzed by flow cytometry. Data were processed with a FlowJo […] (Treestar). Immune cells were gated as singlets>live cells>CD11c^highSiglecF^lowMHCII^high (dendritic cells), CD11c^lowCD11b^highLy-6G^high (neutrophils), and CD11c^lowCD11b^highLy-6G^lowSiglecF^high (eosinophils).

[3] = target: T1, ALPK1; test: NF-kB promoter driven alkaline phosphatase reporter in HEK293 cells (pNPP assay); type: cell-based; details: HEK293-NFkB-AP reporter cells treated 7 hours
Experimental: NF-kB activation was assayed using HEK293 cells stably expressing an NF-kB reporter construct comprising an NF-kB promoter driving expression of alkaline phosphatase (AP). In this system, activation of NF-kB promoter activity drives the expression of AP which is detected using a chromogenic substrate, para-nitrophenyl phosphate (pNPP).
To assess the ALPK1 agonist activity of test compounds, the HEK293 cells were seeded in 96-well plates and allowed to attach overnight. Cells were then exposed to graded concentrations of compounds A1, A2, A3, A4, A18, A26, A27, A28, and A30. Compound 28 was included as a reference. Following treatment, cell culture supernatants were collected and analyzed for alkaline phosphatase activity using the pNPP assay. The results are shown in FIGS. 7A-7B and Table 2B-C below. The EC50 for each compound was determined using GraphPad Prism.

[4] = system: HBsAg, adw; test: Immunization of mice with HBsAg, adw with or without compound; specific total IgG serum titers by ELISA; type: in vivo, mouse
Experimental: Eight-week-old C57BL/6J mice (females) were intradermally (I.D.) immunized at day 0 with HBsAg, adw (1 mg/dose), or HBsAg, adw at 1 mg/dose combined with compound 28 (1 nmol/dose). Mice were boosted with a second immunization at day 14 and the sera collected at day 35. HBsAg, adw-specific total IgG serum titers (OD450) were determined by ELISA. Anti-HBsAg, adw IgG titers were more than 2× higher when HBsAg, adw was combined with 1 nmol/dose of compound 28 than when HBsAg, adw was injected alone (FIG. 3).

[5] = target: T2, ALPK1 (Mus musculus, UniProt Q9CXB8); test: Serum RANTES (CCL5) levels after subcutaneous injection as measure of ALPK1 activation in vivo; details: 10 nmole subcutaneous, serum at 24 hours or 48 hours
T2 construct: C57/B6 mice (n=3 mice/group) were injected subcutaneously; endogenous in cells; host or cells: C57/B6 mice, whole animal
T2 sequence (Q9CXB8 1-1231): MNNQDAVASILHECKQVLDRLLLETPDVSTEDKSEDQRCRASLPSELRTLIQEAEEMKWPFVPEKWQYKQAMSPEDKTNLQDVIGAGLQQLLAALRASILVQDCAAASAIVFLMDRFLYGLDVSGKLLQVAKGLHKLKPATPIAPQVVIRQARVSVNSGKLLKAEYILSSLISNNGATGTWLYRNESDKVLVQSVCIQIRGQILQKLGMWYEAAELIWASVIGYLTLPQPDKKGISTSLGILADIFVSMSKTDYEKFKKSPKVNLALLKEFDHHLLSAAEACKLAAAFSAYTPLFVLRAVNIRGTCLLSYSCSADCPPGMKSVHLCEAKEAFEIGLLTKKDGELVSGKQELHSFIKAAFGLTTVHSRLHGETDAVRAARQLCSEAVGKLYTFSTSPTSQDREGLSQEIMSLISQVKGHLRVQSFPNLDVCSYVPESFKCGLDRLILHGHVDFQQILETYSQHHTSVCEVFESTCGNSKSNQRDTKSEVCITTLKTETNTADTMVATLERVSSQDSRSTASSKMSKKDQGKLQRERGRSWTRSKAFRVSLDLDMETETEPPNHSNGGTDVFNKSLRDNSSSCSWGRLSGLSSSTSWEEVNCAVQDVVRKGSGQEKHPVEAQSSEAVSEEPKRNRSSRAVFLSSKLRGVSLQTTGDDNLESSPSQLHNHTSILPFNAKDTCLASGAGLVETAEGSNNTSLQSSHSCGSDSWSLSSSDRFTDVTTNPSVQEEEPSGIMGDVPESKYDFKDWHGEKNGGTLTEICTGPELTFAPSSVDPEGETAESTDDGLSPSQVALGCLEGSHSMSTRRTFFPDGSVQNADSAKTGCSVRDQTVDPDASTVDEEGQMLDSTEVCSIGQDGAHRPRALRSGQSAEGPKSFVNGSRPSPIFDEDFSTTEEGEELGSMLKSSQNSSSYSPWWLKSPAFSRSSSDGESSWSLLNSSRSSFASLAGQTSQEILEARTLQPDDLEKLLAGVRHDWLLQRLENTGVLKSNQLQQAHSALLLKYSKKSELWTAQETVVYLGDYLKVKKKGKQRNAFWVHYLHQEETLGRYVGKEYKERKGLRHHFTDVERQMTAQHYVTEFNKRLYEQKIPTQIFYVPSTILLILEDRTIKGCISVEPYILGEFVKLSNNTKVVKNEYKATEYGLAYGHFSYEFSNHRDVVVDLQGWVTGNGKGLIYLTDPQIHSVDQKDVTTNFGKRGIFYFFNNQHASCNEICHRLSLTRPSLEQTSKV
Experimental: The ability of Compounds 15 and 28 to stimulate ALPK1 activation in vivo was tested by monitoring serum levels of the chemokine RANTES (CCL5), which is elevated upon activation of ALPK1. Briefly, C57/B6 mice (n=3 mice/group) were injected subcutaneously with PBS (negative control) or 10 nmole of Compound 15 or Compound 28. Serum was collected at 24 hours or 48 hours post injection.

[6] = system: HBV; test: HBV-AAV mouse model: HBV DNA qPCR, serum HBsAg and HBeAg ELISA; type: in vivo; details: 0.1 mg/kg intraperitoneal on days 28 and 31, serum at day 35, versus PBS control
Experimental: Administration of Compound 28 (0.1 mg/kg, twice weekly “BIW”) led to downregulation of HBV DNA expression and a decrease in serum levels of HBsAg, and HBeAg in the HBV-AAV mouse model. At day 1, male C57BL/6 mice were intravenously injected with AAV8-1.3HBV (1×10^11 v/g). After days 28 and 31, each mouse was then intraperitoneally injected with 0.1 mg/kg compound 28 or PBS control. At day 35, mouse serum was collected for HBV DNA qPCR analysis, HBsAg and HBeAg serum analysis by ELISA.

[7] = 4 nmol/dose intraperitoneal days -1, 0, 1
[8] = 4 nmol/dose intraperitoneal days -1, 0, 1, listed as compound 28
[9] = 20 nmol/dose intraperitoneal days -1, 0, 1
[10] = 20 nmol/dose intraperitoneal days -1, 0, 1, listed as compound 28

Structure (SMILES): CC(=O)OC[C@H](F)C1O[C@@H](OP(=O)(O)OP(O)(=S)OC[C@H]2O[C@@H](n3cnc4c(N)ncnc43)C(O)C2O)C(OC(C)=O)C(OC(C)=O)[C@@H]1OC(C)=O (stereo partly drawn) [Compound 28]
- EC50 [1]: 45 nM
- production of dendritic cells after PPE administration [2, 7]: decrease
- production of eosinophils after PPE administration [2, 7]: decrease
- production of neutrophils after PPE administration [2, 7]: decrease
- production of dendritic cells after PPE administration [2, 8]: significantly suppressed
- production of eosinophils after PPE administration [2, 8]: significantly suppressed
- production of neutrophils after PPE administration [2, 8]: only at the 20 nmol/dose level
- production of dendritic cells after PPE administration [2, 9]: decrease
- production of eosinophils after PPE administration [2, 9]: decrease
- production of neutrophils after PPE administration [2, 9]: decrease
- production of dendritic cells after PPE administration [2, 10]: significantly suppressed
- production of eosinophils after PPE administration [2, 10]: significantly suppressed
- production of neutrophils after PPE administration [2, 10]: suppressed
- EC50 ([3]; FIG. 7A, Table 2B): 45 nM
- EC50 ([3]; FIG. 7B, Table 2C): 67 nM
- IgG response against HBsAg, adw (in words) ([4]; 1 nmol with HBsAg, adw versus HBsAg, adw alone): increased IgG response
- Anti-HBsAg, adw IgG titers, HBsAg, adw combined with compound relative to HBsAg, adw alone ([4]; 1 nmol/dose intradermal, days 0 and 14, sera day 35): more than 2 ×
- duration of immune activation (serum RANTES), compared to Compound 15 [5]: longer duration of immune activation
- HBV DNA expression [6]: marked decrease; also recorded: down-regulation
- serum levels of HBeAg [6]: marked decrease; also recorded: lower levels
- serum levels of HBsAg [6]: marked decrease; also recorded: lower levels
